In PubChem BioAssay (NCI):
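GI50 = concentration required for 50% inhibition of growth. Definition used: TGI = concentration required for complete inhibition of growth.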

Legend:
Assay in all cases: NCI tumour cell line growth inhibition, 384-well format
NCI-H23 lung = test system: NCI-H23 lung
NCI-H322M lung = test system: NCI-H322M lung
NCI-H460 NSCLC = test system: NCI-H460 NSCLC
NCI-H522 lung = test system: NCI-H522 lung
NCI/ADR-RES ovarian = test system: NCI/ADR-RES ovarian
OVCAR-3 ovarian = test system: OVCAR-3 ovarian
OVCAR-4 ovarian = test system: OVCAR-4 ovarian
OVCAR-5 ovarian = test system: OVCAR-5 ovarian
OVCAR-8 ovarian = test system: OVCAR-8 ovarian
PC-3 prostate = test system: PC-3 prostate
RPMI-8226 leukemia = test system: RPMI-8226 leukemia
RXF 393 renal = test system: RXF 393 renal
SF-268 CNS = test system: SF-268 CNS
SF-295 CNS = test system: SF-295 CNS
SF-539 CNS = test system: SF-539 CNS
SK-MEL-2 melanoma = test system: SK-MEL-2 melanoma
SK-MEL-28 melanoma = test system: SK-MEL-28 melanoma
SK-MEL-5 melanoma = test system: SK-MEL-5 melanoma
SK-OV-3 ovarian = test system: SK-OV-3 ovarian
SN12C renal = test system: SN12C renal
SNB-19 CNS = test system: SNB-19 CNS
SR leukemia = test system: SR leukemia
SW-620 colon = test system: SW-620 colon
T-47D breast = test system: T-47D breast
TK-10 renal = test system: TK-10 renal
U251 glioblastoma = test system: U251 glioblastoma
UACC-257 melanoma = test system: UACC-257 melanoma
UACC-62 melanoma = test system: UACC-62 melanoma
UO-31 renal = test system: UO-31 renal

Structure (SMILES): COc1ccc(CC(NC(=O)[C@H](C)NC(=O)CN2CCOCC2)C(=O)N[C@@H](Cc2ccccc2)C(=O)[C@@]2(C)CO2)cc1 (some centres not stated)
- TGI (NCI-H23 lung): 362 nM
- GI50 (NCI-H322M lung): 284 nM
- TGI (NCI-H322M lung): 860 nM
- GI50 (NCI-H460 NSCLC): 181 nM
- TGI (NCI-H460 NSCLC): 355 nM
- GI50 (NCI-H522 lung): 167 nM
- TGI (NCI-H522 lung): 304 nM
- GI50 (NCI/ADR-RES ovarian): 20400 nM
- TGI (NCI/ADR-RES ovarian): 59400 nM
- GI50 (OVCAR-3 ovarian): 131 nM
- TGI (OVCAR-3 ovarian): 262 nM
- GI50 (OVCAR-4 ovarian): 147 nM
- TGI (OVCAR-4 ovarian): 284 nM
- GI50 (OVCAR-5 ovarian): 192 nM
- TGI (OVCAR-5 ovarian): 360 nM
- GI50 (OVCAR-8 ovarian): 184 nM
- TGI (OVCAR-8 ovarian): 340 nM
- GI50 (PC-3 prostate): 188 nM
- TGI (PC-3 prostate): 333 nM
- GI50 (RPMI-8226 leukemia): 23.8 nM
- TGI (RPMI-8226 leukemia): 55.4 nM
- GI50 (RXF 393 renal): 135 nM
- TGI (RXF 393 renal): 268 nM
- GI50 (SF-268 CNS): 136 nM
- TGI (SF-268 CNS): 269 nM
- GI50 (SF-295 CNS): 157 nM
- TGI (SF-295 CNS): 294 nM
- GI50 (SF-539 CNS): 175 nM
- TGI (SF-539 CNS): 315 nM
- GI50 (SK-MEL-2 melanoma): 22.6 nM
- TGI (SK-MEL-2 melanoma): 93.8 nM
- GI50 (SK-MEL-28 melanoma): 132 nM
- TGI (SK-MEL-28 melanoma): 262 nM
- GI50 (SK-MEL-5 melanoma): 192 nM
- TGI (SK-MEL-5 melanoma): 345 nM
- GI50 (SK-OV-3 ovarian): 171 nM
- TGI (SK-OV-3 ovarian): 312 nM
- GI50 (SN12C renal): 179 nM
- TGI (SN12C renal): 320 nM
- GI50 (SNB-19 CNS): 188 nM
- TGI (SNB-19 CNS): 347 nM
- GI50 (SR leukemia): 30.4 nM
- TGI (SR leukemia): 106 nM
- GI50 (SW-620 colon): 167 nM
- TGI (SW-620 colon): 312 nM
- GI50 (T-47D breast): 159 nM
- TGI (T-47D breast): 302 nM
- GI50 (TK-10 renal): 298 nM
- TGI (TK-10 renal): 802 nM
- GI50 (U251 glioblastoma): 173 nM
- TGI (U251 glioblastoma): 316 nM
- GI50 (UACC-257 melanoma): 123 nM
- TGI (UACC-257 melanoma): 253 nM
- GI50 (UACC-62 melanoma): 126 nM
- TGI (UACC-62 melanoma): 254 nM
- GI50 (UO-31 renal): 1750 nM
- TGI (UO-31 renal): 3170 nM
